Assay results published in ChEMBL document CHEMBL5149994, “Anticancer potential of indirubins in medicinal chemistry: Biological activity, structural modification, and structure-activity relationship” (Eur J Med Chem, 2021).

Columns and labels:
[1] = biological target: Proto-oncogene tyrosine-protein kinase Src (Homo sapiens, UniProt P12931); test: Inhibition of c-SRC in human MDA-MB-468 cells in presence of [gamma-32P]ATP and ATP by immunoprecipitation method; format: cell-based
[2] = test system: LXFL 529; test: Antiproliferative activity against human LXFL 529 cells assessed as cell growth inhibition; format: functional, cell-based
[3] = test system: HCT-116; test: Antiproliferative activity against human HCT-116 cells assessed as cell growth inhibition; format: functional, cell-based
[4] = biological target: Vascular endothelial growth factor receptor 2 (Homo sapiens, UniProt P35968); test: Inhibition of VEGFR2 (unknown origin)
Chain of Vascular endothelial growth factor receptor 2 (P35968 whole entry): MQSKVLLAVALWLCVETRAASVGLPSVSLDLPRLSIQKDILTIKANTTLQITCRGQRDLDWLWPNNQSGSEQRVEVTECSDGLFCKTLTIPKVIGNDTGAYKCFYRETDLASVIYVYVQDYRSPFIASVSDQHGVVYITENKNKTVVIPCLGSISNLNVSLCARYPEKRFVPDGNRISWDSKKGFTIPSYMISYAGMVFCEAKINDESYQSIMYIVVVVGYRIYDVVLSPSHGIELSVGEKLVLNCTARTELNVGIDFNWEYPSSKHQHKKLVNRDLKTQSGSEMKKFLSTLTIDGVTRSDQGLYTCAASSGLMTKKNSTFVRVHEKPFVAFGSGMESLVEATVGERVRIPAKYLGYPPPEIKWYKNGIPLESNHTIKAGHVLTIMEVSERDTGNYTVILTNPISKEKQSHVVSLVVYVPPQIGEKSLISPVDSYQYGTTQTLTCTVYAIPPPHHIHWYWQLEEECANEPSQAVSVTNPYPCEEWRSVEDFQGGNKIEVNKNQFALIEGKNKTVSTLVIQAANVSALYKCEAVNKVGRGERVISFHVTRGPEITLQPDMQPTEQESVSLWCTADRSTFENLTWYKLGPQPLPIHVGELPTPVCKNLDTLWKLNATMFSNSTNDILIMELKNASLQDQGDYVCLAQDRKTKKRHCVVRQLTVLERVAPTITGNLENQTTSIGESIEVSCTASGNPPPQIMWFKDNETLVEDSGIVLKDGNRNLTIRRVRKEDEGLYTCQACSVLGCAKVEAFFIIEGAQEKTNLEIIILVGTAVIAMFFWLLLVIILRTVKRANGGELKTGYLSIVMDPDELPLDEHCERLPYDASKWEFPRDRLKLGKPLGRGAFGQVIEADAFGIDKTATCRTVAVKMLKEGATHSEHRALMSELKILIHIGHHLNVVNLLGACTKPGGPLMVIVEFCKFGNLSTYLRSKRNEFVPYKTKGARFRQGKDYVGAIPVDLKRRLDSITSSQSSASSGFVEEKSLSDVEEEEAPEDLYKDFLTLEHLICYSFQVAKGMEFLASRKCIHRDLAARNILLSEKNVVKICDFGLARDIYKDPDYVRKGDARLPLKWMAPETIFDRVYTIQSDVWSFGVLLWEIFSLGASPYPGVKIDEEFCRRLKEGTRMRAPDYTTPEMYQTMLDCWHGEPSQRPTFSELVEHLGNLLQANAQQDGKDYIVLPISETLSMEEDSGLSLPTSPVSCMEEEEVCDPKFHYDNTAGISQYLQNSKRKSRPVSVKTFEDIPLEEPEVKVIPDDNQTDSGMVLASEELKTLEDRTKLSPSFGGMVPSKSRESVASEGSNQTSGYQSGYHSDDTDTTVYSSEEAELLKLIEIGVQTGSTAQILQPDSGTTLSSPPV

[5] = test system: CT26; test: Antitumor activity against mouse CT26 cells in BALB/c mouse assessed as reduction in tumour volume at 200 mg/kg, ILES daily measured after 15 days relative to control; format: functional; design: scale not given: the % may be the effect or the level left; details: time 15 day
[6] = test system: CT26; test: Antitumor activity against mouse CT26 cells in BALB/c mouse assessed as reduction in tumour weight at 200 mg/kg, ILES daily measured after 15 days relative to control; format: functional; design: scale not given: the % may be the effect or the level left; details: time 15 day
[7] = test system: K-562R; test: Antiproliferative activity against imatinib-resistant human K-562R cells assessed as cell growth inhibition measured after 72 hrs by MTT assay; format: functional, cell-based
[8] = test system: K562; test: Antitumor activity against human K562 cells xenografted in BALB/c mouse assessed as reduction in tumour volume at 6 mg/kg, ip treated every other day for 2 weeks relative to control; format: functional; design: scale not given: the % may be the effect or the level left
[9] = Antitumor activity against human PDAC cells xenografted in BALB/c nu/nu mouse assessed as reduction in tumour weight at 40 mg/kg, ip treated every other day for 6 days relative to control; format: functional; design: scale not given: the % may be the effect or the level left; details: time 6 day
[10] = test system: MCF7; test: Antiproliferative activity against human MCF7 cells assessed as cell growth inhibition; format: functional, cell-based
[11] = biological target: Glycogen synthase kinase-3 (Homo sapiens, UniProt P49840+P49841); test: Inhibition of GSK3 (unknown origin); format: protein assay
[12] = biological target: Glycogen synthase kinase-3 (Sus scrofa, UniProt B2LUN4+I6LNT8); test: Inhibition of porcine brain GSK-3alpha/beta incubated for 30 mins in presence of [33p]-gamma ATP by scintillation counter analysis
[13] = Antiproliferative activity against human TT cells assessed as cell growth inhibition measured after 48 hrs by Cell titer-Glo assay; format: functional, cell-based
[14] = biological target: Aurora kinase B (Homo sapiens, UniProt Q96GD4); test: Inhibition of Aurora B (unknown origin)
Chain of Aurora kinase B (Q96GD4 whole entry): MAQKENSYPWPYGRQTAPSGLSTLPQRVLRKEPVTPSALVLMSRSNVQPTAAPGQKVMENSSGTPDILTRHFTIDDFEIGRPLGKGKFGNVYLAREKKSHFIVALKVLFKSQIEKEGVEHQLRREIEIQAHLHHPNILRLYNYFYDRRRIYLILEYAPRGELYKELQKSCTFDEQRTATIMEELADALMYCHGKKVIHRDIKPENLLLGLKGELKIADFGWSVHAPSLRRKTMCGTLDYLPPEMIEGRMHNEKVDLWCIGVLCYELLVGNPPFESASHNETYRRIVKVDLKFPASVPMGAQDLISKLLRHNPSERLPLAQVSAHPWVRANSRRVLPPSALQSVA

[15] = biological target: Aurora kinase C (Homo sapiens, UniProt Q9UQB9); test: Inhibition of Aurora C (unknown origin)
Chain of Aurora kinase C (Q9UQB9 whole entry): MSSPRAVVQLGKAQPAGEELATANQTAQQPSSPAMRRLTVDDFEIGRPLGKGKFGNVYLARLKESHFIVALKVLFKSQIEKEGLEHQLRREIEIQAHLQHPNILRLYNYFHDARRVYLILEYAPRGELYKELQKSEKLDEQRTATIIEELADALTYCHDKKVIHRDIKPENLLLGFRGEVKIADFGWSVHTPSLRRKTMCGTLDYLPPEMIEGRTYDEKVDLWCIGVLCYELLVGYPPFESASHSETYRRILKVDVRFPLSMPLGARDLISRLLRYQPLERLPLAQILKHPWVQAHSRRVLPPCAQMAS

[16] = biological target: T1, Receptor-type tyrosine-protein kinase FLT3 (Homo sapiens, UniProt P36888); test: Inhibition of recombinant FLT3 (unknown origin) by HTRF assay
T1 sequence (P36888 whole entry): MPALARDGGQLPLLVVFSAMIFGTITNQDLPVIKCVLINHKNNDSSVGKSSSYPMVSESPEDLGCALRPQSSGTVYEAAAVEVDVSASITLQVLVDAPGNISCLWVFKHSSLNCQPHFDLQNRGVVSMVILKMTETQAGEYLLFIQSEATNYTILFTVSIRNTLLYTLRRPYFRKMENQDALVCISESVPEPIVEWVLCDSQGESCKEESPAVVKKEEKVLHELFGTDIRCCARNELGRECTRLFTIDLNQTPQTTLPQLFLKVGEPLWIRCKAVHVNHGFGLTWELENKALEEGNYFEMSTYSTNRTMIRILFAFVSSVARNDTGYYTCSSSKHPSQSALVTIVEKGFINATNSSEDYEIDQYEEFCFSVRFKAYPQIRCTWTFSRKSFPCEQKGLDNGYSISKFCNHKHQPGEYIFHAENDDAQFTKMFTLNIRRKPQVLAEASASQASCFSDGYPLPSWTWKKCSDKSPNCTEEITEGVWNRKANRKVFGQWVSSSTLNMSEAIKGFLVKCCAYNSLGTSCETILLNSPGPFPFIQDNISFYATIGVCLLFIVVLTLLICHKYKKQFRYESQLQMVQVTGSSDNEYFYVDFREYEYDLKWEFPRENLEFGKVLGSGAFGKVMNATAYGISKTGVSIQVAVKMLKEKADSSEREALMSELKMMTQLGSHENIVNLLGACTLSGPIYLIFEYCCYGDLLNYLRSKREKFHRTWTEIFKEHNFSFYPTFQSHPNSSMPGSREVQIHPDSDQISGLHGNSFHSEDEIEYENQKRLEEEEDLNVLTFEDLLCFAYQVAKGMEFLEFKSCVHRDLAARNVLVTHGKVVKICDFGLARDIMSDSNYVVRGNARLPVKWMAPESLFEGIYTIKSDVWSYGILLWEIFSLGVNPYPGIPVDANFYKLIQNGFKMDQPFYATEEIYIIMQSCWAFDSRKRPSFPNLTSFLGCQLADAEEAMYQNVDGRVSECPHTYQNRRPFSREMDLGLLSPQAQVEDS

[17] = test system: MV4-11; test: Cytotoxicity in human MV4-11 cells assessed as cell growth inhibition incubated for 48 hrs by propidium iodide staining based flow cytometry assay; format: functional
[18] = biological target: T1, Receptor-type tyrosine-protein kinase FLT3; test: Inhibition of FLT3 (unknown origin)

Chain of Proto-oncogene tyrosine-protein kinase Src (P12931 2-536 limits assumed): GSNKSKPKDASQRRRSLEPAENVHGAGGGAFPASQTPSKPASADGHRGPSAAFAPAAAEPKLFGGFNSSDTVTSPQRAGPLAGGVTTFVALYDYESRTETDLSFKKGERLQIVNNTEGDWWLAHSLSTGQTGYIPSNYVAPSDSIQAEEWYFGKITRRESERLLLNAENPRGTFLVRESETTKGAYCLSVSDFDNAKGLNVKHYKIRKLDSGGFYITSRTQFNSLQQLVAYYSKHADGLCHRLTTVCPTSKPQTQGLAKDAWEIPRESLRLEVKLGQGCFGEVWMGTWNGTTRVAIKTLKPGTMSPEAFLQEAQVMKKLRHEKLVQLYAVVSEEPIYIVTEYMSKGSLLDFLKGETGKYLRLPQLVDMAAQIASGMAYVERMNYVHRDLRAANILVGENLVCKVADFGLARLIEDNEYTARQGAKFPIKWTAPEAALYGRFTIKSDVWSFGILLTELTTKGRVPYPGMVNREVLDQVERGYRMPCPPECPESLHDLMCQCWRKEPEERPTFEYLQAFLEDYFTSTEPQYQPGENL

O=C1Nc2ccccc2/C1=C1/Nc2ccccc2/C1=N\OCC(O)CO (stereo not given)
IC50 [1]: 950 nM
IC50 [2]: 900 nM
IC50 [3]: < 100 nM
IC50 [4]: 950 nM
Activity [5]: 49.3%
Activity [6]: 46.8%

O=C1Nc2ccc([N+](=O)[O-])cc2/C1=C1/Nc2ccc(O)cc2/C1=N\O
IC50 [7]: 783 nM
Activity [8]: 90%

COc1ccc2c(c1)/C(=C1/Nc3ccccc3/C1=N\O)C(=O)N2
Activity [9]: 60%

COc1ccc2c(c1)/C(=C1/Nc3ccccc3/C1=N\OCCO[C@@H]1O[C@H](CO)[C@@H](O)[C@H](O)[C@H]1O)C(=O)N2
IC50 [10]: 1200 nM
IC50 [2]: 500 nM
IC50 [3]: 500 nM

Cl.Cl.O=C1Nc2cc(Br)ccc2/C1=C1/Nc2ccccc2/C1=N\OCCN1CCNCC1
IC50 [11]: 1.3 nM

O=C1Nc2c(Br)cccc2/C1=C1/Nc2ccccc2/C1=N\O
IC50 [12]: 32 µM
IC50 [13]: 4.1 µM
IC50 [14]: 4.6 µM
IC50 [15]: 100 nM

O=C1Nc2ccc(C(=O)O)cc2/C1=C1/Nc2ccccc2/C1=N\O
IC50 [16]: 7.89 nM
GI50 [17]: > 1000 nM
IC50 [18]: 7.89 nM
